Results reported in PMC8146408 (Viruses, 2021).
Converted amounts (≈) assume the structure as drawn.

Tests used:
Cytotoxicity assay (XTT) = type: cell-based; details: human, HepG2 cells, XTT; mean ± SD, at least two independent experiments; read-out: CC50 (concentration of a compound causing 50% cytotoxicity)
HepG2 cells = test: Cytotoxicity assay (XTT); type: cell-based; details: for Concentration without cytotoxicity: cytotoxicity assay
HBV Cp (C150 dimer) = target: T1, HBV Cp (C150 dimer) (Hepatitis B virus genotype D subtype adw, UniProt P03147, R150C); test: Thermal shift assay (TSA); type: binding; details: 20 µM compound, 1% DMSO
T1 construct: made in house; host or cells: E. coli BL21 (DE3), pET11a
T1 sequence (P03147 1-150 R150C): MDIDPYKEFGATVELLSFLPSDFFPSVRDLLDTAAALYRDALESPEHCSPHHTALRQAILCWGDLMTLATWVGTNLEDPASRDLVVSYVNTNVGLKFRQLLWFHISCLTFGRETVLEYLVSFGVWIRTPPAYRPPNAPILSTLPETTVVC

[1] = Microsomal stability, human liver microsomes; type: in vitro ADME; details: pH 7.4, cofactor NADPH, n = 3, read-out: Microsomal Stability t1/2
[2] = Microsomal stability, mouse liver microsomes; type: in vitro ADME; details: pH 7.4, cofactor NADPH, n = 3, read-out: Microsomal Stability t1/2
HBV replication = test: Antiviral assay (HBV replication luciferase reporter in HuH-7 cells); type: cell-based, Hepatitis B virus; details: mean ± SD, at least two independent experiments
[3] = Plasma stability, mouse plasma; type: in vitro ADME; details: CD-1, pH 7.4, n = 3, read-out: Plasma Stability t1/2
[4] = Plasma stability, human plasma; type: in vitro ADME; details: pH 7.4, n = 3, read-out: Plasma Stability t1/2
[5] = Aqueous solubility (thermodynamic, DPBS); type: physicochemical; details: Dulbecco's Phosphate-Buffered Saline (DPBS), aqueous buffer, thermodynamic from solid, pH 7.2, n = 3

Cc1cc(C)c(CNC(=O)c2cn(Cc3ccccc3)nc2-c2ccccc2)c(=O)[nH]1 [ZW-1918]
CC50 (Cytotoxicity assay (XTT)): 47.6 ± 0.2 µM

CC1=C(C(=O)Nc2ccc(F)c(C)c2)C=Nc2ccccc2N1 [ZW-1843]
CC50 (Cytotoxicity assay (XTT)): > 100 µM

COc1cccc(N2CC(C(=O)Nc3cccc(Cl)c3C)CC2=O)c1 (centres unmarked) [ZW-1929]
CC50 (Cytotoxicity assay (XTT)): 41.3 ± 1.7 µM

O=C1NC2(CCCC2)C(=O)N1Cc1cn(-c2ccccc2)nc1-c1ccccc1 [ZW-1889]
CC50 (Cytotoxicity assay (XTT)): 58.2 ± 5.6 µM

Cc1cccc(NC(=O)c2cccc(CN3C(=O)CNC3=O)c2)c1 [ZW-1946]
CC50 (Cytotoxicity assay (XTT)): 44.1 ± 0.6 µM

CSc1c(C(=O)Nc2ccc(F)c(C)c2)c(C)[nH]c(=O)c1C#N [ZW-1845]
CC50 (Cytotoxicity assay (XTT)): > 100 µM

CC1Oc2c(cccc2C(=O)Nc2cccc(C(F)F)c2)NC1=O (centres unmarked) [ZW-1888]
CC50 (Cytotoxicity assay (XTT)): 47 µM | CC50 (HepG2 cells; HepG2 cells, XTT, mean ± SD, at least two independent experiments, read-out: CC50 (concentration of a compound causing 50% cytotoxicity)): 46.6 ± 2.4 µM | TSA profile (effect on HBV Cp melting curve) (HBV Cp (C150 dimer)): bind to HBV Cp and affect capsid formation and stability

Cc1cc(NC(=O)c2c(C)[nH]c(=O)c3c(N)n[nH]c23)ccc1F [ZW-1847]
half-life at 1 µM [1]: > 2 h | half-life at 1 µM [2]: > 2 h | CC50 (Cytotoxicity assay (XTT)): > 100 µM | Concentration without cytotoxicity (HepG2 cells): ≥ 100 µM | EC50 (concentration of a compound inhibiting HBV replication by 50%) (HBV replication): single-digit | TSA profile (effect on HBV Cp melting curve) (HBV Cp (C150 dimer)): bind to HBV Cp and affect capsid formation and stability | half-life at 1 µM [3]: > 6 h | half-life at 1 µM [4]: > 6 h | solubility at 72 h [5]: 2.14 ± 0.03 µM (≈ 0.675 µg/mL)

Cc1cn2c(C)c(C(=O)Nc3ccc(F)c(C)c3)cnc2n1 [ZW-1842]
CC50 (Cytotoxicity assay (XTT)): > 100 µM

Cc1cc(NC(=O)c2cc(C#N)c(=O)[nH]c2C)ccc1F [ZW-1840]
CC50 (Cytotoxicity assay (XTT)): > 100 µM

Cc1cc(NC(=O)c2cnc3nc4ccccc4n3c2C)ccc1F [ZW-1841]
half-life at 1 µM [1]: > 2 h | half-life at 1 µM [2]: 0.543 ± 0.0267 h | CC50 (Cytotoxicity assay (XTT)): > 100 µM | Concentration without cytotoxicity (HepG2 cells): ≥ 100 µM | EC50 (concentration of a compound inhibiting HBV replication by 50%) (HBV replication): single-digit | TSA profile (effect on HBV Cp melting curve) (HBV Cp (C150 dimer)): bind to HBV Cp and affect capsid formation and stability | half-life at 1 µM [3]: > 6 h | half-life at 1 µM [4]: > 6 h | solubility at 72 h [5]: 0.31 ± 0.03 µM (≈ 0.104 µg/mL)
